Measured values reported in patent US20230180809A1, “NUTRACEUTIC COMPOSITION COMPRISING LIMONENE AND A DRY EXTRACT OF COCOA FIBRE FOR THE TREATMENT OF OBESITY” (TARGETING GUT DISEASE SRL, priority 2020, published 2023).

Tested on: obese mice
Experiment: slimming effect of limonene in obese mice
Format: in vivo
Settings: obese mice after 12 weeks of high lipid diet, feed containing 0.5% of limonene ad libitum for 2 weeks
Protocol: Animal feed having a concentration of 0.5% in limonene corresponding to a daily dose of 0.6 g/kg of weight in humans. After 12 weeks of high lipid diet that caused obesity, mice were administered ad libitum, animal feed containing 0.5% of limonene for 2 weeks.

## C=C(C)[C@H]1CC=C(C)CC1 [limonene]
  accumulation of lipids in the cells: preventing the accumulation of lipids
  reduction of serum triglycerides: up to 47%
  size of both white and brown adipocytes: decreasing the size
